According to ChEMBL document CHEMBL1201862, “PubChem BioAssay data set” (2004):
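48-hour exposure; five concentrations; linearly interpolated endpoints. At the GI50, growth is halved.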 Activity calls are given as the source filed them. No stated cut-off is given here; in the data, active = GI50 up to about 1.1 µM and inactive = higher.

Key:
Assay in all cases: NCI anticancer screen, dose series, 48 h
DMS-273 = test system: DMS-273
KM-20L2 = test system: KM-20L2
SNB-78 = test system: SNB-78
HOP-18 = test system: HOP-18
LXFL 529 = test system: LXFL 529
DMS-114 = test system: DMS-114
DLD-1 = test system: DLD-1
RXF 631 = test system: RXF 631
XF498 = test system: XF498

SMILES | GI50 (DMS-273) | GI50 (KM-20L2) | GI50 (SNB-78) | GI50 (HOP-18) | GI50 (LXFL 529) | GI50 (DMS-114) | GI50 (DLD-1) | GI50 (RXF 631) | GI50 (XF498)
O=c1cc(CO)oc2c3c(cc(O)c12)OCC(COC1OC(CO)C(O)C(O)C1O)=CC3 (configuration not stated) | > 100 µM (inactive) | > 100 µM (inactive) | > 100 µM (inactive) | > 100 µM (inactive) | > 100 µM (inactive) | > 100 µM (inactive) | > 100 µM (inactive) |  | 
c1ccc(C(c2ccccc2)c2ccccn2)cc1 | > 100 µM (inactive) | > 100 µM (inactive) | > 100 µM (inactive) | > 100 µM (inactive) |  | > 100 µM (inactive) | > 100 µM (inactive) | > 100 µM (inactive) | > 100 µM (inactive)
COC(=O)C1=C(C(=O)OC)C2(c3ccccc3)OC1(c1ccccc1)c1cc3ccccc3cc12 | 1.76 µM (inactive) | 1.88 µM (inactive) |  | 1.22 µM (inactive) | 1.22 µM (inactive) |  | 1.74 µM (inactive) | 1.88 µM (inactive) | 
CCO/C=C1\N=C(c2ccc(Cl)c(Cl)c2)OC1=O | > 100 µM (inactive) | > 100 µM (inactive) | > 100 µM (inactive) |  | > 100 µM (inactive) | 28.4 µM (inactive) | > 100 µM (inactive) |  | > 100 µM (inactive)
CC[C@@]1(OP(=O)(O)O)C(=O)OCc2c1cc1n(c2=O)Cc2cc3ccccc3nc2-1 | 0.0513 µM (active) | 1 µM (active) | 4.63 µM (inactive) | 1.08 µM (active) | 1.73 µM (inactive) | 0.0485 µM (active) | 1.11 µM (active) |  | 0.221 µM (active)
Cc1ccc(/C=C2\CCCCC2=O)cc1 | 40.1 µM (inactive) | > 100 µM (inactive) | 73.6 µM (inactive) | 24 µM (inactive) | 94.6 µM (inactive) | 43.6 µM (inactive) | 49.2 µM (inactive) | > 100 µM (inactive) | > 100 µM (inactive)
Cc1cc2c(cc1C)[n+]([O-])c(C(=O)/C=C/c1ccc3c(c1)OCO3)c(C)[n+]2[O-] | 27 µM (inactive) | > 100 µM (inactive) | 60.3 µM (inactive) | > 100 µM (inactive) |  | 33.1 µM (inactive) | > 100 µM (inactive) | 10.1 µM (inactive) | 27 µM (inactive)
CCc1ccccc1NC(=O)CC1NC(=O)CS1 (configuration not stated) | > 100 µM (inactive) | > 100 µM (inactive) | > 100 µM (inactive) | > 100 µM (inactive) | > 100 µM (inactive) | > 100 µM (inactive) | > 100 µM (inactive) | > 100 µM (inactive) | > 100 µM (inactive)
COC(=O)C(=O)C(C(=O)C(=O)Nc1cc([N+](=O)[O-])ccc1C#N)c1nc2ccccc2nc1O (configuration not stated) | > 100 µM (inactive) | > 100 µM (inactive) |  | > 100 µM (inactive) | > 100 µM (inactive) | > 100 µM (inactive) | > 100 µM (inactive) | > 100 µM (inactive) | > 100 µM (inactive)
CC(=O)O[C@H]1C(=O)[C@@]2(C)C([C@H](OC(=O)c3ccccc3)[C@]3(O)C[C@H](OC(=O)[C@H](O)[C@H](NC(=O)c4ccccc4)c4ccc(Cl)cc4)C(C)=C1C3(C)C)C1(OC(C)=O)CO[C@@H]1C[C@@H]2O (some centres not stated) | 0.000111 µM (active) | 0.00103 µM (active) | 0.071 µM (active) | 0.0794 µM (active) | 0.00191 µM (active) | < 0.0001 µM (active) | 0.00233 µM (active) | 0.104 µM (active) | 0.00728 µM (active)
CC(CCc1ccc2c(c1)c(N)c1ccc(N)cc1[n+]2[O-])CC(C)(C)C (configuration not stated) | 2.21 µM (inactive) | 1.37 µM (inactive) | 2.05 µM (inactive) | 1.93 µM (inactive) | 1.53 µM (inactive) |  | 1.82 µM (inactive) | 1.65 µM (inactive) | 1.16 µM (inactive)
COC(=O)c1c(N)n[nH]c1N | > 100 µM (inactive) | > 100 µM (inactive) | > 100 µM (inactive) |  |  |  | > 100 µM (inactive) | > 100 µM (inactive) | > 100 µM (inactive)
Clc1ccc(C(n2cc(Br)cn2)n2cc(Br)cn2)cc1 | 18.8 µM (inactive) |  | 19.7 µM (inactive) | 18.1 µM (inactive) | 14.9 µM (inactive) |  |  |  | 
CCC1(OC(=O)CN2CCN(CCO)CC2)C(=O)OCc2c1cc1n(c2=O)Cc2cc3ccccc3nc2-1 (configuration not stated) | 0.0652 µM (active) | 1.22 µM (inactive) | 5.25 µM (inactive) | 0.76 µM (active) | 6.05 µM (inactive) | 0.558 µM (active) | 6.62 µM (inactive) |  | 2.16 µM (inactive)
Cc1c2n(c(=O)[nH]c1=O)C1OC(CO)C(N=[N+]=[N-])C1O2 (configuration not stated) | > 100 µM (inactive) | > 100 µM (inactive) | > 100 µM (inactive) |  | > 100 µM (inactive) | > 100 µM (inactive) | > 100 µM (inactive) |  | 
CC1(C)c2ccccc2N2C(c3ccccc3)=NOC21C (configuration not stated) | > 100 µM (inactive) | > 100 µM (inactive) | > 100 µM (inactive) | > 100 µM (inactive) | > 100 µM (inactive) | > 100 µM (inactive) | > 100 µM (inactive) | > 100 µM (inactive) | 
CCCOP1(=O)C=C(C)C(Cl)=C(C)C1 (configuration not stated) | 14.6 µM (inactive) | 29.3 µM (inactive) |  | 29.4 µM (inactive) | 20.7 µM (inactive) | 19.7 µM (inactive) | 22.8 µM (inactive) | 37.1 µM (inactive) | 16.5 µM (inactive)
CN(CC1NCCCC1O)C12CC3CC(CC(C3)C1)C2 (configuration not stated) | > 100 µM (inactive) | > 100 µM (inactive) |  | > 100 µM (inactive) | > 100 µM (inactive) | > 100 µM (inactive) | > 100 µM (inactive) |  | > 100 µM (inactive)
Cc1cc(Cl)ccc1NC(=O)C1C(=O)N(c2ccc(Cl)cc2C)C(=O)/C1=N\N (configuration not stated) |  | 36 µM (inactive) | 74.8 µM (inactive) | 40.6 µM (inactive) | 44 µM (inactive) | 30.1 µM (inactive) |  |  | 65 µM (inactive)
COc1cc2c(cc1O)C1C(O)C(O)C=C3CCN(C2)C31 (configuration not stated) | 1.95 µM (inactive) | 2.34 µM (inactive) | 0.565 µM (active) | 2.43 µM (inactive) | 3.18 µM (inactive) | 1.09 µM (active) | 2.47 µM (inactive) | 2.97 µM (inactive) | 1.36 µM (inactive)
NC(=S)N/N=C1\C(=O)N(CCc2ccccc2)C(=O)C1C(=O)NCCc1ccccc1 (configuration not stated) | > 100 µM (inactive) | > 100 µM (inactive) | > 100 µM (inactive) | > 100 µM (inactive) | > 100 µM (inactive) | 74.8 µM (inactive) |  |  | 
C=C1C(=O)OC2/C=C(\C)C(OC(C)=O)C3OC3C(C)(O)CC(OC(=O)/C(C)=C/C)C12 (configuration not stated) | 24.5 µM (inactive) | 4.46 µM (inactive) | 8.3 µM (inactive) | 11.3 µM (inactive) | 2.44 µM (inactive) | 5.45 µM (inactive) |  |  | 6.87 µM (inactive)
CC1=C(C(=O)Nc2ccccc2)C(c2ccc(C(C)C)cc2)C(C(=O)Nc2ccccc2)=C(C)N1 |  | 15.2 µM (inactive) | 31.5 µM (inactive) | 19.1 µM (inactive) | 16.7 µM (inactive) | 7.26 µM (inactive) | 17.5 µM (inactive) | 18.2 µM (inactive) | 13.1 µM (inactive)
C[C@]12CC[C@H](O)CC1CCC[C@@H]2O (some centres not stated) | > 100 µM (inactive) |  | > 100 µM (inactive) |  | > 100 µM (inactive) | > 100 µM (inactive) | > 100 µM (inactive) | > 100 µM (inactive) | > 100 µM (inactive)
